Patent US20160256449A1, “H3 RECEPTOR ANTAGONIST FOR USE IN THE TREATMENT OF ALZHEIMER'S DISEASE” (SANOFI, priority 2013, published 2016)

What was measured:
[1] = test system: patients with mild to moderate Alzheimer's disease; experiment: clinical study, actigraphy (Actiwatch); assay type: in vivo, human; conditions: for Interdaily variability, Ch from bl FUP / Intradaily stability, Ch from bl FUP / Mean awakening duration, Ch from bl FUP / Number of awakenings, Ch from bl FUP / Relative amplitude, Ch from bl FUP / Sleep efficiency, Ch from bl FUP / Sleep fragmentation, Ch from bl FUP / Total sleep time, Ch from bl FUP / Wake after sleep onset, Ch from bl FUP: follow-up
Source text: Actigraphy as used herein refers to an assessment of activity measured by an Actiwatch®, which was worn day and night by the patient during 4 periods of 15 days: before randomization, immediately after randomization, around week 12 and after treatment discontinuation around week 34 during the clinical study described in Example 2. The watch measures movements translating into assessment of sleep quality (number and duration of awakenings, wake after sleep onset or WASO, fragmentation index, sleep efficiency, total sleep period, total sleep time) and circadian rhythms ([…], relative amplitude).
(§1) A randomized, double-blind, parallel-group, placebo-controlled clinical trial was performed to study the effect on cognitive performance, safety, and tolerability of 2-(cyclohexylmethyl)-N-{2-[(2S)-1-methylpyrrolidin-2-yl]ethyl}-1,2,3,4-tetrahydroisoquinoline-7-sulfonamide difumarate monohydrate as adjunct treatment to donepezil.
(§2) More specifically, patients with mild to moderate Alzheimer's disease on stable donepezil therapy were randomized to receive doses of 0.5 mg, 2 mg, or 5 mg/day of 2-(cyclohexylmethyl)-N-{2-[(2S)-1-methylpyrrolidin-2-yl]ethyl}-1,2,3,4-tetrahydroisoquinoline-7-sulfonamide difumarate monohydrate or placebo for 24 weeks, with a 10 week follow-up period.
(§3) Patients were randomized to receive 0.5 mg, 2 mg, or 5 mg of 2-(cyclohexylmethyl)-N-{2-[(2S)-1-methylpyrrolidin-2-yl]ethyl}-1,2,3,4-tetrahydroisoquinoline-7-sulfonamide difumarate monohydrate (measured in base form), or matching placebo once a day, with donepezil (5 mg or 10 mg in the form the patient took prior to enrollment), for 24 weeks, with or without food.

[2] = test system: patients with mild to moderate Alzheimer's disease; experiment: clinical study, CDR-S computerized assessment; assay type: in vivo, human
Protocol: “CDR-S” as used herein, refers to the Cognitive Drug Research computerized assessment system which tests various aspects of human cognitive function, memory, and attention.
as §1, §2, §3
Change from baseline to Week 24 in the five factors from the Cognitive Drug Research computerized assessment system (CDR-S): power of attention, continuity of attention, quality of working memory, cognitive reaction time, and speed of memory;
Change from baseline to Week 8 and 24 in the Cognitive Drug Research computerized assessment system (CDR-S) episodic memory;

## CN1CCC[C@H]1CCNS(=O)(=O)c1ccc2c(c1)CN(CC1CCCCC1)CC2 [API, 2-(cyclohexylmethyl)-N-{2-[(2S)-1-methylpyrrolidin-2-yl]ethyl}-1,2,3,4-tetrahydroisoquinoline-7-sulfonamide difumarate monohydrate]
[1]; 0.5 mg/day with donepezil
  Interdaily variability, Ch from bl W2: 0.01
  Interdaily variability, Ch from bl W12: 0.04
  Intradaily stability, Ch from bl W2: −0.03
  Intradaily stability, Ch from bl W12: −0.06
  Mean awakening duration, Ch from bl W2: 0.08 min
  Mean awakening duration, Ch from bl W12: 0.22 min
  Mean awakening duration, significance (unlabelled line under Ch from bl W12): 0.0109
  Number of awakenings, Ch from bl W2: −0.37
  Number of awakenings, Ch from bl W12: −0.55
  Relative amplitude, Ch from bl W2: 0.00
  Relative amplitude, Ch from bl W12: 0.02
  Sleep efficiency, Ch from bl W2: −0.05%
  Sleep efficiency, Ch from bl W12: −0.53%
  Sleep efficiency, significance (unlabelled line under Ch from bl W12): 0.0121
  Sleep fragmentation, Ch from bl W2: 0.91
  Sleep fragmentation, Ch from bl W12: 0.29
  Total sleep time, Ch from bl W2: −0.03 h.min
  Total sleep time, Ch from bl W12: 0.05 h.min
  Wake after sleep onset, Ch from bl W2: 0.02 h.min
  Wake after sleep onset, Ch from bl W12: 0.03 h.min
  Interdaily variability, Ch from bl FUP: −0.02
  Intradaily stability, Ch from bl FUP: 0.06
  Mean awakening duration, Ch from bl FUP: 0.01 min
  Number of awakenings, Ch from bl FUP: 1.34
  Relative amplitude, Ch from bl FUP: −0.01
  Sleep efficiency, Ch from bl FUP: −0.69%
  Sleep fragmentation, Ch from bl FUP: 0.98
  Total sleep time, Ch from bl FUP: 0.24 h.min
  Wake after sleep onset, Ch from bl FUP: 0.04 h.min
[1]; 2 mg and 5 mg groups, from week 12
  sleep quality assessed by wake after sleep onset (WASO) over placebo: dose-dependent worsening of sleep quality
[1]; 2 mg/day with donepezil
  Interdaily variability, Ch from bl W2: −0.01
  Interdaily variability, Ch from bl W12: −0.03
  Intradaily stability, Ch from bl W2: 0.02
  Intradaily stability, Ch from bl W12: 0.01
  Mean awakening duration, Ch from bl W2: 0.14 min
  Mean awakening duration, Ch from bl W12: 0.40 min
  Mean awakening duration, significance (unlabelled line under Ch from bl W12): <.0001
  Number of awakenings, Ch from bl W2: 0.51
  Number of awakenings, Ch from bl W12: 1.26
  Relative amplitude, Ch from bl W2: −0.03
  Relative amplitude, Ch from bl W12: −0.06
  Relative amplitude, significance (unlabelled line under Ch from bl W12): <.0001
  Sleep efficiency, Ch from bl W2: −1.65%
  Sleep efficiency, Ch from bl W12: −2.58%
  Sleep efficiency, significance (unlabelled line under Ch from bl W12): <.0001
  Sleep fragmentation, Ch from bl W2: 2.82
  Sleep fragmentation, Ch from bl W12: 6.31
  Sleep fragmentation, significance (unlabelled line under Ch from bl W12): <.0001
  Total sleep time, Ch from bl W2: −0.1 h.min
  Total sleep time, Ch from bl W12: −0.2 h.min
  Wake after sleep onset, Ch from bl W2: 0.07 h.min
  Wake after sleep onset, Ch from bl W12: 0.18 h.min
  Wake after sleep onset, significance (unlabelled line under Ch from bl W12): <.0001
  Interdaily variability, Ch from bl FUP: −0.01
  Intradaily stability, Ch from bl FUP: 0.04
  Mean awakening duration, Ch from bl FUP: 0.34 min
  Number of awakenings, Ch from bl FUP: 1.27
  Relative amplitude, Ch from bl FUP: −0.07
  Sleep efficiency, Ch from bl FUP: −3.97%
  Sleep fragmentation, Ch from bl FUP: 3.93
  Total sleep time, Ch from bl FUP: −0.25 h.min
  Wake after sleep onset, Ch from bl FUP: 0.13 h.min
[1]; 2 mg/day with donepezil, NS = non-significant
  Total sleep time, significance (unlabelled line under Ch from bl W12): 0.06)
[1]; 5 mg
  total sleep time: No modification
[1]; 5 mg group
  total sleep time and WASO after treatment discontinuation (FUP): improved
[1]; 5 mg/day with donepezil
  Interdaily variability, Ch from bl W2: 0.00
  Interdaily variability, Ch from bl W12: −0.04
  Intradaily stability, Ch from bl W2: −0.05
  Intradaily stability, Ch from bl W12: 0.02
  Mean awakening duration, Ch from bl W2: 0.30 min
  Mean awakening duration, Ch from bl W12: 0.38 min
  Mean awakening duration, significance (unlabelled line under Ch from bl W12): <.0001
  Number of awakenings, Ch from bl W2: −0.52
  Number of awakenings, Ch from bl W12: 0.84
  Relative amplitude, Ch from bl W2: −0.02
  Relative amplitude, Ch from bl W12: −0.08
  Relative amplitude, significance (unlabelled line under Ch from bl W12): 0.0015
  Sleep efficiency, Ch from bl W2: −1.82%
  Sleep efficiency, Ch from bl W12: −2.26%
  Sleep efficiency, significance (unlabelled line under Ch from bl W12): <.0001
  Sleep fragmentation, Ch from bl W2: 3.57
  Sleep fragmentation, Ch from bl W12: 5.83
  Sleep fragmentation, significance (unlabelled line under Ch from bl W12): 0.0005
  Total sleep time, Ch from bl W2: −0.11 h.min
  Total sleep time, Ch from bl W12: −0.05 h.min
  Wake after sleep onset, Ch from bl W2: 0.08 h.min
  Wake after sleep onset, Ch from bl W12: 0.17 h.min
  Wake after sleep onset, significance (unlabelled line under Ch from bl W12): <.0001
  Interdaily variability, Ch from bl FUP: 0.00
  Intradaily stability, Ch from bl FUP: −0.03
  Mean awakening duration, Ch from bl FUP: 0.12 min
  Number of awakenings, Ch from bl FUP: 1.20
  Relative amplitude, Ch from bl FUP: −0.02
  Sleep efficiency, Ch from bl FUP: −0.89%
  Sleep fragmentation, Ch from bl FUP: 3.08
  Total sleep time, Ch from bl FUP: 0.1 h.min
  Wake after sleep onset, Ch from bl FUP: 0.09 h.min
[2]; 5 mg/day with donepezil, at 24 weeks
  episodic memory difference vs placebo: no longer significant
[2]; 0.5 and 5 mg group at week 24
  power of attention vs placebo, tendency: Tendencies for improvement versus placebo
[2]; all dose groups, week 8 or week 24, mITT
  power of attention change from baseline vs placebo: no significant difference
[2]; week 24, with donepezil
  CDR-S measure of working memory: not significantly modified
  CDR-S other measures of attention/speed of response: not significantly modified
